The record followed here is US10556926B2, “Synthetic artificial peptides with antimicrobial effect” (priority 2014, dated 2020).

Where two headings read alike, the source gives them in different places. No end group written: not given here. A value given as a limit tells only on which side of the number the result lay.

Series [1] relates to E. coli ML-35p. The series is described as follows: Kinetics of permeabilization of the outer bacteria membrane (nitrocefin). The series is classed as cell-based, Escherichia coli. The protocol:
(§1) The ability of the antimicrobial peptides for the respective permeabilization of the outer and inner bacteria membrane was tested by way of example on E. coli ML-35p (made available by Dr. R. E. Lehrer, Center for Health Sciences, Los Angeles, Calif., USA). The peptides were incubated in serial dilution with E. coli ML-35p and the time-dependent release of cell-internal components was measured in a slightly modified protocol according to Ericsson et al. (2002). For this purpose, the bacteria were cultured in Luria-Bertani (LB) medium with 100 μg/ml ampicillin (Fluka, Taufkirchen, Germany) until reaching an optical density of 0.4 at 600 nm wavelength. Then, the cells were washed three times by centrifugation at 4000 g for 1 min and subsequent up-take in 10 mM HEPES buffer pH 7.2. Finally, the cells were diluted to an optical density of 0.3 at 600 nm wavelength. To measure the permeabilization of the outer membrane, nitrocefin (Merck, Darmstadt, Germany) was diluted in HEPES buffer to a concentration of 60 μg/ml. The antimicrobial peptides were diluted in HEPES buffer to an end concentration of 12 μM, 24 μM, 48 μM and 96 μM end concentration. In the next step, 50 μl of nitrocefin were admixed with 50 μl of antimicrobial peptide and 50 μl of bacteria suspension such that an end concentration of 20 μg/ml of nitrocefin, 4 μM to 32 μM of antimicrobial peptide and bacteria with an optical density of 0.1 to 600 nm were present. The samples were mixed and the absorption at 500 nm wavelength was measured directly over a period of at least 90 min at 37° C. with regular shaking in a FLUOstar omega Microplate Reader (BMG Labtech, Ortenberg, Germany). The investigation of the permeabilization of the inner membrane was carried out in the same way except that instead of the nitrocefin accordingly 0-nitrophenyl-beta-D-galactoside (ONPG, Sigma-Aldrich) in an end concentration of 100 μg/ml was used and the absorption change was determined at a wavelength of 420 nm. The control used was samples without antimicrobial peptide, the positive control used for the membrane permeabilization was polymyxin B (Sigma-Aldrich) in an end concentration of 5 μM. For the data evaluation, firstly the measurement values of the corresponding negative controls were deducted from the measurement values of the samples, and the difference was then divided by the corresponding measurement values of the permeabilization control. Then, a graphical evaluation was carried out, the calculated values being plotted against the peptide concentration and being fitted with the help of the Origin Pro 8.1 G Software (OriginLab) according to a sigmoidal model.
(§2) As comparison parameter between the peptides, the times were ascertained from this at which 50% of the final signal level was reached. For this purpose, the equation with the percentage membrane permeabilization y, the time x in minutes, the lower plateau A1, the upper plateau A2, the point of inflection Log X0 and the Hill incline p
(§3) [formula] was used. The calculation of the parameters A1, A2, Log X0 and p was performed by the program by reference to the compensating curve. Further resolution of equation 5.1 for the case y=50 then produced for x the desired time at which the half-maximum signal level was reached.

Series [2] has as its system E. coli ML-35p. Kind of series: Kinetics of permeabilization of the inner bacteria membrane (ONPG). Format: cell-based, Escherichia coli. The protocol:
as §1, with “model. As representative examples, FIGS. 4 and 5 show the graphical evaluation for the kinetic investigation of the permeabilization of the outer E. coli bacteria membrane for the peptides N4 (FIG. 4) and O1 (FIG. 5).” for “model.”
as §2, §3

The test system of series [3] is human histiocytic lymphoma cell line U937. The series is described as follows: Long-term growth inhibition, minimum toxic concentration (MTC). The protocol: The cytotoxic potential of the antimicrobial peptides was determined by way of example by reference to the human histiocytic lymphoma cell line U937 (DSMZ). The influence of the peptides on the permeability of the cell membrane and their longer-term growth-inhibiting effect was investigated. 15 ml of RPMI 1640 medium with 2 mM glutamine and 10% FCS (Biochrom, Berlin, Germany) were inoculated with 1·10^5 cells per ml and cultivated for three days at 37° in T75 cell culture bottles (TPP, Trasadingen, Switzerland) with constant gassing with 5% CO2 in a climatically controlled chamber. The medium was admixed with 10 U/ml penicillin and […] streptomycin (both AppliChem, Darmstadt, Germany) to avoid bacterial contaminations, with no further antibiotics being added during the subsequent recultivation. Before each experiment, the cells were washed by centrifugation at 100 g for five minutes and subsequent resuspension in RPMI 1640 medium with 2 mM glutamine and 10% FCS in each case two times and adjusted to a concentration of 1·10^5 cells per ml. Finally, in each case 100 μl of the U937 cells were transferred to the reaction chambers of a sterile 96-well polypropylene microtiter plate and admixed with in each case 100 μl of a prediluted antimicrobial peptide in RPMI 1640 medium without antibiotic addition, such that end concentrations of in each case 5·10^4 cells per ml at peptide concentrations between 0.25 μM and 64 μM were present. The negative control used was samples without antimicrobial peptide, while Triton X-100 (AppliChem) was used in an end concentration of 5% as positive control for the permeabilization. The samples were cultivated for two hours at 37° C. and with continuous gassing with 5% CO2 in a climatically controlled chamber. Then, in each case 100 μl of each sample were removed and transferred to new sterile microtiter plates for determining the direct membrane damage. The remaining 100 μl of the samples were cultivated for at least four further days.
For this purpose, 10 μl of lysing solution were added to in each case 100 μl of cell suspension and incubated for 60 minutes at 37° C. Then, the cell culture supernatants were investigated as described above. The lowest peptide concentration at which complete suppression of the cell growth was established after four days was stipulated as the minimum toxic concentration (MTC).

Series [4] concerns E. coli DH5α. The note with it: DH5α, 18 h. The protocol:
(§4) The minimum inhibitory concentration (MIC) of the peptides was carried out by way of example against gram(−) E. coli DH5α (and gram(+) Staphylococcus xylosus (both Deutsche Sammlung von Mikroorganismen and Zellkulturen, DSMZ) in a standardized microdilution method according to the general guidelines of the CLSI (Clinical and Laboratory Standards Institute 2006) and EUCAST (European Committee for Antimicrobial Susceptibility Testing of the European Society of Clinical Microbiology and Infectious Diseases 2003) with slight adaptations to the investigation of cationic antimicrobial peptides (Wiegand et al. 2008). The bacteria cells were cultivated in Mueller-Hinton-Boullion (MHB) to an optical density of 0.4 to 0.6 at 600 nm wavelength, corresponding to about 4·10^8 bacteria per ml. Then, the bacteria cultures were diluted to a bacteria concentration of about 1·10^5 bacteria per ml in sterile MHB. Using the peptides, series of 2-fold dilutions starting at 128 μM to the smallest dilution of 0.5 μM in MHB were prepared. The peptide dilutions were mixed with the dilute bacteria cultures in a […] in the chambers of a 96-well polypropylene microtiter plate (Starlab, Hamburg, Germany), so that the peptides were present in an end concentration between 64 μM and 0.25 μM at a bacteria concentration of 5·10^4 bacteria/ml. Sterile MHB served as negative control, and the positive control used as the corresponding bacteria concentration in MHB without the addition of peptide. The microtiter plates were incubated for 18 hours at 37° C. with shaking at 120 rpm in a climatically controlled chamber. After the incubation, the bacteria concentration was determined by renewed absorption measurement at a wavelength of 600 nm.

In series [5] the test system is Staphylococcus xylosus. The note with it: 18 h. The protocol: as §4
In series [6] the test system is human histiocytic lymphoma cell line U937. Kind of series: Cytotoxicity, direct membrane damage (CytoTox 96), LD50. Format: cell-based. The note with it: U937, two hours at 37° C., 0.25-64 μM. The protocol: The direct membrane damage was investigated with the help of the CytoTox 96 Non-Radioactive Cytotoxicity Assay (Promega, Mannheim, Germany). For this purpose, the cells were sedimented at 100 g for ten minutes at 4° C., and 50 μl of the resulting culture supernatant were added to 50 μl of the CytoTox substrate mix. After an incubation time of 30 minutes in the dark at room temperature, 50 μl of the CytoTox stopping solution were added to the sample and the absorption was measured at 490 nm. To determine the LD50 value, the measurement value of the negative control was deducted from the absorption values and divided by the measurement value of the permeabilization control. The calculated values were plotted graphically against the peptide concentration and fitted using the Origin pro 8.1 G Software according to a sigmoidal model and the LD50 values were ascertained from this. The calculation was carried out analogously to example 5 by reference to the solution of equation 5.1 for the case y=50, where y in this case corresponds to the relative cytotoxicity in percent and x corresponds to the peptide concentration in μM. Representative graphical evaluations of LD50 values are shown in FIG. 6 by reference to the measurement results for the reference peptides BMAP-27, protamine and KL-helix, and also the peptide O1 according to the invention.

For series [7], the system named is human cell line U937. The series is described as follows: Mixed culture experiment (bacterially contaminated cell culture), eukaryotic cells. Format: cell-based. The note with it: 25 and 50 μM peptide, two hours, with S. xylosus. The protocol: Destruction of the bacteria membranes by the antimicrobial peptides was investigated in a flow cytometric method with the help of a living/dead staining method in combination with an internal calibration and counting system. For this purpose, SYBR Green I (Sigma-Aldrich) was used as total staining and propidium iodide (Sigma-Aldrich) was used as contrast staining for membrane-damaged bacteria. […] The flow analysis was carried out on a Cytomics FC500 Instrument (Beckmann Coulter, Munich, Germany) equipped with an argon laser (488 nm) and the corresponding emission filters for SYBR Green I (525 nm) and propidium iodide (620 nm). […] Then, the mixture was incubated for 10 min in the dark at room temperature and then measured by flow cytometry. The number of events in each gate was captured and evaluated using the CXP Analyses 2.2 Software. The total number of living and dead bacteria was calculated. […]
The ability of the antimicrobial peptides to be used as a therapeutic active ingredient was investigated by reference to its selective antimicrobial properties in model mixed culture experiments. […] Then, the mixed cell cultures were stained and measured by flow cytometry as described in example 3, the measurement scale being adapted to the measurement of the larger eukaryotic cells.

For “GRFKRFRKKFKKLFKKLSPVIPLLHLG-OH [BMAP-27]”, the “Outer membrane, time to 50% of final signal” value in series [1] (4 μM peptide), in series [1] (8 μM peptide), in series [1] (16 μM peptide) and in series [1] (32 μM peptide) was less than 1 min each time. Further, the “Inner membrane, time to 50% of final signal” value in series [2] (4 μM peptide) was 16 min; in series [2] (8 μM peptide), 9 min; in series [2] (16 μM peptide), 7 min; in series [2] (32 μM peptide) it was 5 min. In series [3] (U937, complete suppression of cell growth after four days), the “Toxicity MTC (minimum toxic concentration)” value is 4.0 µM.

Take KKKIIIIIIKKK [O1]: the “MIC E. coli” value in series [4] came to 8 µM. The “MIC S. xylosus” value in series [5] turned out to be 0.5 µM. The “Toxicity LD50” value in series [6] is greater than 64 µM. Also, in series [3], the “Toxicity MTC (minimum toxic concentration)” value is greater than 64 µM. Also, the “Effect on eukaryotic U937 cells in mixed culture” value in series [7] is recorded as “remain uninfluenced”.
